Assay results as given in ChEMBL document CHEMBL6134927, “Novel Pyrido[3,4-d]pyrimidin-4-one and Pyrimido[5,4-d]pyrimidin-4-one Derivatives as TREM2 Agonists for Treating Parkinson's Disease” (ACS Med Chem Lett, 2025).

The compounds below were run against T1, Triggering receptor expressed on myeloid cells 2 (Homo sapiens, UniProt Q9NZC2) (assay: Agonist activity at human TREM2 expressed in HEK cells co-expressing human DAP12 assessed as increase in Syk phosphorylation incubated for 30 mins by AlphaLISA assay).
T1 sequence (Q9NZC2 whole entry): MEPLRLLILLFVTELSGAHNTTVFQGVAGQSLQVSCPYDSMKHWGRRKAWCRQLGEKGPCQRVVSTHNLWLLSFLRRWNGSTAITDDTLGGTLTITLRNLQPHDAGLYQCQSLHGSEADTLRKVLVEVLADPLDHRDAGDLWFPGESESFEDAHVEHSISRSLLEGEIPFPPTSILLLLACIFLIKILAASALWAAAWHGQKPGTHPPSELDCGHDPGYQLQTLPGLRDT
Format: cell-based

SMILES | EC50
Cn1cc([C@H]2CN(c3nc(-c4ccc(Cl)cc4F)c4nc(C(F)F)n(C)c(=O)c4n3)CCO2)cn1 | 5 nM
COc1cc([C@H]2CN(c3nc(-c4ccc(Cl)cc4F)c4nc(C(F)(F)F)n(C)c(=O)c4n3)CCO2)ccn1 | 4 nM
Cc1cc([C@@H]2CN(c3cc4c(=O)n(C)c(C(F)F)nc4c(-c4ccc(Cl)cc4F)n3)CCO2)ccn1 | 3 nM
C[C@H]1CN(c2nc(-c3ccc(Cl)cc3F)c3nc(C(F)(F)F)n(C)c(=O)c3n2)C[C@@H](c2cnn(C3CC3)c2)O1 | 2 nM

The remaining compounds from weak to strong by EC50, led by results:

EC50 | SMILES
2 nM | Cc1cc(C2CN(c3nc(-c4ccc(Cl)cc4F)c4nc(C(F)F)n(C)c(=O)c4n3)CCO2)ccn1 (stereo unspecified)
1 nM | Cc1cc([C@@H]2CN(c3nc(-c4ccc(Cl)cc4F)c4nc(C(F)F)n(C)c(=O)c4n3)CCO2)ccn1
